In one data set the test system is miR-204. The data set is described as follows: Antagomir pilot studies in vivo: islet miR-204 expression. More on the design: species or system mouse. The following applies: after just one injection. Here is the method: miR-204 knock down (in vitro and in vivo). We will utilize the miR204 inhibitor oligo (IN-320505-05; meridian Hairpin Inhibitor rno-miR-204) or scrambled control (IN-001005-01-05) (Dharmacon) to perform transfection experiments in INS-1 cells and primary human islets as mentioned above and described herein. This microRNA inhibitor oligonucleotide specifically binds to miR-204 and targets it for degradation. In fact, 72 h after transfection we saw a significant ˜5-fold reduction in miR-204 expression, but no effect on other microRNAs (data not shown) confirming the effectiveness and specificity of this approach. […] Therefore, after diabetes has been confirmed by blood glucose readings over 250 mg/dL on two consecutive days, these obese and diabetic male mice and their lean, non-diabetic littermates will again be divided into three treatment groups and will receive antagomir, mutant antagomir or saline injections as described for the wild-type mice. In all mice, blood glucose levels will be assessed daily (by glucometer) and serum will be collected before injection and prior to sacrifice for measurement of insulin levels (by ELISA)(17). […]

The next data set concerns the target T1, STAT3 (Rattus norvegicus, UniProt P52631).
T1 construct: endogenous in cells; host or cells: INS-1 rat beta cells
Put plainly: STAT3 inhibition in INS-1 cells, expression by qRT-PCR. Type of data set: cell-based. Here is the method:
FIG. 18. Effects of TXNIP and diabetes on beta cell miR-204 expression. Expression of miR-204 was assessed by qRT-PCR in (A) INS-1 cells overexpressing TXNIP (INS-TXNIP) and control (INS-LacZ) cells, (B) primary islets of TXNIP-deficient HcB-19 and C3H control mice, and (C) primary islets of beta-cell-specific TXNIP knockout bTKO and lox/lox control mice. (D) TXNIP effects on STAT3 activation were determined by immunoblotting for phospho-STAT3 (p-STAT3) and total STAT3 in INS-TXNIP and control INS-LacZ cells. (E) To determine the role of STAT3 in miR-204 expression, INS-1 cells were incubated with the STAT3 inhibitor STATTIC (2 μM for 48 hr) or vehicle (DMSO) and the expression of miR-204 was detected by qRT-PCR. (F) To assess the effect of diabetes on miR-204 expression, primary islets of 10-week old, male, diabetic ob/ob or lean control mice were analyzed by qRT-PCR. Bars represent means±SEM; n=3-5 independent experiments.
miR-204 is encoded within intron 6 of the TRPM3 gene (transient receptor potential melastatin 3, a cation-selective channel) and is transcribed in the same direction as TRPM3^30. Since miR-204 and TRPM3 are therefore sharing the same promoter, we deduced that, if TXNIP were to regulate miR-204 expression at the transcriptional level, TRPM3 would be co-regulated in parallel. […]

Oligonucleotides are written 5' to 3', each unit as a sugar letter and its base; * is a phosphorothioate linkage, no mark a phosphodiester; rarer units and linkages stand in square brackets, end groups in braces. Plain capitals give the bases only. {Chol} = cholesterol; m = 2'-O-methyl

T1 sequence (P52631 whole entry): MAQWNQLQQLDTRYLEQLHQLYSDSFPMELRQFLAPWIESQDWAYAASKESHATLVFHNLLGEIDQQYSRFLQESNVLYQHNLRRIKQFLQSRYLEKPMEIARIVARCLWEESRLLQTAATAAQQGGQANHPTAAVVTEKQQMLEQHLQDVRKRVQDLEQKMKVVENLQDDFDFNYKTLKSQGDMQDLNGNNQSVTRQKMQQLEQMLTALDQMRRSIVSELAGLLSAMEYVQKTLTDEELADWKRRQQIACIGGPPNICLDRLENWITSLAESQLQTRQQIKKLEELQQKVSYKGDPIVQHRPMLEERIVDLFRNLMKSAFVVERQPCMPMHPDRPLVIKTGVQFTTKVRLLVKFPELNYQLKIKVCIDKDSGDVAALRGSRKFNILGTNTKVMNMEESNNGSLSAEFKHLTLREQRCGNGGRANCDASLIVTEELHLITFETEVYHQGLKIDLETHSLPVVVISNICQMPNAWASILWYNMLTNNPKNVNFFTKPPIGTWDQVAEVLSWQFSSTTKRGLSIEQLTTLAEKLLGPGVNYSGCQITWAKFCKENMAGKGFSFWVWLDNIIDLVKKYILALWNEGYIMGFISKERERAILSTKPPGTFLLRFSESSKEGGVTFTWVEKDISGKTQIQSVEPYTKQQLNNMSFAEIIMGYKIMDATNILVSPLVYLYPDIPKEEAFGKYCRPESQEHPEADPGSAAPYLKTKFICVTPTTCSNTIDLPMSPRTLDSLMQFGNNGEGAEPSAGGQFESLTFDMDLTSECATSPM

“5′-mA(*)mG(*)mGmCmAmUmAmGmGmAmUmGmAmCmAmAmAmG mG(*)mG(*)mA(*) mA(*)-3Chl (antisense mA*mG*mGmCmAmUmAmGmGmAmUmGmAmCmAmAmAmGmG*mG*mA*mA*{Chol}) [miR-204 antagomir]”: the “reduction in islet miR-204 expression” value in the data set on miR-204 was about 2 fold. `O=[N+]([O-])c1ccc2c(c1)S(=O)(=O)C=C2` [STATTIC]: the “TRPM3 (host gene) expression” value at STAT3 was “significantly induced”. Besides, the miR-204 expression result on STAT3 (2 μM for 48 hr vs DMSO) is “significantly induced”.

Values taken from patent US9334498B2, “Methods and compositions for modulating MIR-204 activity” (UAB Research Foundation, priority 2012, dated 2016).
